# The source made the active and inactive calls.
# Assays:
# [1] = molecular target: T1, Heat shock factor protein 1 (Mus musculus, UniProt P38532); experiment: inhibition of MG132-induced HSE-luciferase signal, confirmation, cell-based, NIH3T3, luminescence, dose retest (AID 2382); type: functional;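 note: NIH3T3 fibroblasts with HSF1-driven luciferase reporter stressed by proteasome inhibitor MG132; luminescence from HSF1-driven luciferase expression after 8 hours of MG132 stress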
# T1 sequence (P38532 whole entry): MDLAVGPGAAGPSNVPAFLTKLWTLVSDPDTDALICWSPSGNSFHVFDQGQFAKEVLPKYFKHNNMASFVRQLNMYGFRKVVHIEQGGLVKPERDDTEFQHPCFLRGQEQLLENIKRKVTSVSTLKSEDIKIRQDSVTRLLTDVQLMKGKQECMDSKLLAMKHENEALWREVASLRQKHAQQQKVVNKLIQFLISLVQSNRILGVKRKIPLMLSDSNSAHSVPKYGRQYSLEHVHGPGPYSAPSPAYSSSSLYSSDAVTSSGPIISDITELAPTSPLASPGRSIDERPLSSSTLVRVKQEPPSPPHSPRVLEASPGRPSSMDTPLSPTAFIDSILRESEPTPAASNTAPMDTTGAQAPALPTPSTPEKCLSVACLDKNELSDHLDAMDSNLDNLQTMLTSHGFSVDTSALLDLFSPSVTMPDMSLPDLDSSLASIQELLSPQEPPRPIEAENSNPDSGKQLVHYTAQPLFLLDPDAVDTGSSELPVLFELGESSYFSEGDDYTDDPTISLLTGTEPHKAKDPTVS
# HEK293 = experiment: inhibitors of LMP1-driven NF-kB reporter, dose response, cell-based, HEK293, luciferase, cherry-pick (AID 588343); type: functional; conditions: Homo sapiens
# [2] = molecular target: T2, Short transient receptor potential channel 4 (Mus musculus, UniProt Q9QUQ5); experiment: TRPC4 positive allosteric modulators, dose response, cell-based, HEK293 TRPC4/mu-opioid, Fluo-4 calcium, EC20 DAMGO (AID 434941); type: functional
# T2 sequence (Q9QUQ5 whole entry): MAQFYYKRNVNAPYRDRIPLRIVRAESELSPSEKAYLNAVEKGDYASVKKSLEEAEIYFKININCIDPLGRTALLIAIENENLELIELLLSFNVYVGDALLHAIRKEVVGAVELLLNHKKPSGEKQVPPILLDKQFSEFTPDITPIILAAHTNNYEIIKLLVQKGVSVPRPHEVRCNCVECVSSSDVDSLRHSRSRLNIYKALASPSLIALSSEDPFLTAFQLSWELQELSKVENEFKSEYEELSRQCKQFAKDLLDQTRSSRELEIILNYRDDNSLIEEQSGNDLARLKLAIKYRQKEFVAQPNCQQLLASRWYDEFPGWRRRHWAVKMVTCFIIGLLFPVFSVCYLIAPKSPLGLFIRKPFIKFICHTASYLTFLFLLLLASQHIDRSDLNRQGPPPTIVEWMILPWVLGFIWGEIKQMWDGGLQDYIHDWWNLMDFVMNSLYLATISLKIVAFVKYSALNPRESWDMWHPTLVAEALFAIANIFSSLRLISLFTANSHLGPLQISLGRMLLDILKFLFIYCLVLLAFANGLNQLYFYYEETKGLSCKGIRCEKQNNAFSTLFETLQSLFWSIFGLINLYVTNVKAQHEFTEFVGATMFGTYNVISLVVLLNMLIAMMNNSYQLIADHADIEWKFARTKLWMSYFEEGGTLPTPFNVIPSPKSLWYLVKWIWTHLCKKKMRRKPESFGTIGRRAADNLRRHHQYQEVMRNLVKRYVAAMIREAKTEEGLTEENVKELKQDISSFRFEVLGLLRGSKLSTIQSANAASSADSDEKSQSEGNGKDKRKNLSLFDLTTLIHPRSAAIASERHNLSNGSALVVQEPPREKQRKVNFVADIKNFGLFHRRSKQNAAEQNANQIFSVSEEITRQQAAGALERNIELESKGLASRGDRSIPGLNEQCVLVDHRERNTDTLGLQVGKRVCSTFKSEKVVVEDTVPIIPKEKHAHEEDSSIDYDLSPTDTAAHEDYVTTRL
# cells [3] = conditions: HEK293
# ORF 73 = ORF 73 (Human herpesvirus 8, UniProt O40947); experiment: inhibitors of C-LANA binding to LBS DNA, dose response, biochemical, fluorescence polarization, cherry-picked samples (AID 504725); parameters: species or system Human gammaherpesvirus 8;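 note: fluorescence polarization of a labeled DNA duplex reporting LANA DNA binding; potency is for inhibitors that block LANA binding to the DNA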
# Salmon testes DNA = experiment: DNA intercalators displacing acridine orange, dose response, artefact control for KSHV LANA DNA-binding inhibitor project, biochemical, fluorescence polarization, cherry-picked samples, set 2 (AID 504727); parameters: species or system Salmonidae
# [4] = molecular target: T3, RNA-binding protein pos-1 (Caenorhabditis elegans, UniProt G5EF15); experiment: inhibitors of POS-1/mex-3 RNA binding, dose response, biochemical, fluorescence polarization (AID 1964);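 note: purified POS-1 fused to maltose binding protein made in E. coli; potency of compounds blocking POS-1 binding to fluorescent RNA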
# T3 sequence (G5EF15 whole entry): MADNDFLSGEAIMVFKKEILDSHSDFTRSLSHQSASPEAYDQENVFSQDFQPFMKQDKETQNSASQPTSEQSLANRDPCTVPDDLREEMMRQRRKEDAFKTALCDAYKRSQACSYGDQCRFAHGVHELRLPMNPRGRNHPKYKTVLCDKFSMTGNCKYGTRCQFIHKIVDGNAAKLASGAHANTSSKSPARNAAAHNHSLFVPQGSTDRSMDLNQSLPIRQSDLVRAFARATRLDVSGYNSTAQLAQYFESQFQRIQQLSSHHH
# [5] = Artemis endonuclease inhibitor potency, dose response, biochemical, fluorescence intensity (AID 720701); type: functional;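 note: Artemis endonuclease enzyme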
# HeLa = experiment: HeLa cell cytotoxicity, dose response, cytotoxicity control, 24 h, cherry-picked samples (AID 504726); type: functional, cell-based; conditions: Homo sapiens;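 note: potency for cytotoxicity as loss of luminescence signal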
# [6] = HepG2 cell cytotoxicity, dose response, cytotoxicity control, ATP luminescence, cherry-pick, set 6 (AID 1053125); type: functional, cell-based
# [7] = molecular target: Luciferin 4-monooxygenase (Photinus pyralis, UniProt P08659); experiment: Counter Screen for Luciferase-based Assay Positives. [Related pubchem assays: 620, 618, 411 ]
# HT-1080 = experiment: cytotoxicity in HT1080 fibrosarcoma cells, cell-based, fluorescence readout (AID 620); type: functional; conditions: Homo sapiens
# cells [8] = conditions: A549
# [9] = molecular target: T4, Zinc finger protein mex-5 (Caenorhabditis elegans, UniProt Q9XUB2); experiment: MEX-5/TCR-2 RNA interaction inhibitors, dose response, biochemical, C. elegans, fluorescence polarization (AID 1960)
# T4 sequence (Q9XUB2 whole entry): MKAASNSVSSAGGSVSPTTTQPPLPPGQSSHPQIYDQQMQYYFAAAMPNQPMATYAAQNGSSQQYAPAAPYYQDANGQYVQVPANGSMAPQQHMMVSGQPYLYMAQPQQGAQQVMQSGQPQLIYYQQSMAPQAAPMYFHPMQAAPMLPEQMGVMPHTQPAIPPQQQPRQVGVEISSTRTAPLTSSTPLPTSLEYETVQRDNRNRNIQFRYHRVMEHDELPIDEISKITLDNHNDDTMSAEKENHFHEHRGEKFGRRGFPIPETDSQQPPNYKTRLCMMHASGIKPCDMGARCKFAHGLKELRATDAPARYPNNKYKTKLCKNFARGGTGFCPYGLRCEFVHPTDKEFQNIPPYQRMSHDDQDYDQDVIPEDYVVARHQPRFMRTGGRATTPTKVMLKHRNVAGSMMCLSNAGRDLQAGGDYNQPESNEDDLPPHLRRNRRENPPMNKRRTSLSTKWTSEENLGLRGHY
# [10] = molecular target: T5, Microphthalmia-associated transcription factor (Homo sapiens, UniProt O75030); experiment: TRPM1 promoter luciferase signal decrease, dose response, MITF inhibitor project, cell-based, SK-MEL-5, cherry-picked, set 3 (AID 493073); type: functional
# T5 sequence (O75030 whole entry): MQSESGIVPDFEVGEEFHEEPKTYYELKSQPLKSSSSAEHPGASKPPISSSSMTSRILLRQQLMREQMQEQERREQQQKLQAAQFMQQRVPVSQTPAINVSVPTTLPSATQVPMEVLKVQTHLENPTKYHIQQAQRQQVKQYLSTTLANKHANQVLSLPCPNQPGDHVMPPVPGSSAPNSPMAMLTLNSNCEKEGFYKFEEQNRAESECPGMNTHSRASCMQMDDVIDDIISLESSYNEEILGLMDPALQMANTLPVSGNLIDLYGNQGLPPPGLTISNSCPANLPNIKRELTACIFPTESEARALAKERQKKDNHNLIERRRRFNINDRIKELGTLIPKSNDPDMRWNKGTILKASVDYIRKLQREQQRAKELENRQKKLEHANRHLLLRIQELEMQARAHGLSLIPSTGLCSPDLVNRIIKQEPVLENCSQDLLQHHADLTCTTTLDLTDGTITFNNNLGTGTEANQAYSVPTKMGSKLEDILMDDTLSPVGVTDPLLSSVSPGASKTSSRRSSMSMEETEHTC
# [11] = molecular target: Voltage-dependent T-type calcium channel subunit alpha-1H (Homo sapiens, UniProt O95180); experiment: Cav3.2 T-type channel inhibitors, cell-based, synthetic library set 1, calcium flux (AID 493022); type: functional
# Caspase-3 = molecular target: T6, Caspase-3 (Homo sapiens, UniProt P42574); experiment: procaspase-3 activators, dose response, biochemical, absorbance (AID 489014)
# T6 sequence (P42574 whole entry): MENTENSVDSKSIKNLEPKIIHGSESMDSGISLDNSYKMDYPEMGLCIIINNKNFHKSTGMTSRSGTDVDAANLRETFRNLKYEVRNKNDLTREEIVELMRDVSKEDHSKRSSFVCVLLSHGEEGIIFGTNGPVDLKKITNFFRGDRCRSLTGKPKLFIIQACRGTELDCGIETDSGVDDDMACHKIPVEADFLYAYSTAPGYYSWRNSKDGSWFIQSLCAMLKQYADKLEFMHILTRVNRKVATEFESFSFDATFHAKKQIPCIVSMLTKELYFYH
# Caspase-7 = Caspase-7 (Homo sapiens, UniProt P55210); experiment: procaspase-7 activators, dose response, counter-screen for procaspase-3 activator project, biochemical, absorbance (AID 489013)
# [12] = molecular target: G-protein coupled receptor 35 (Homo sapiens, UniProt Q9HC97); experiment: SAR analysis of Antagonists of the GPR35 Receptor using an Image-Based Assay - Set 5. [Related pubchem assays (depositor defined):AID2058, AID2079]; type: functional
# [13] = molecular target: G-protein coupled receptor 55 (Homo sapiens, UniProt Q9Y2T6); experiment: SAR Analysis of Selective Antagonists of GPR55 using an Image-Based Assay - Set 3. [Related pubchem assays (depositor defined):AID2058, AID2079]; type: functional
# [14] = molecular target: T7, Rac GTPase-activating protein 1 (Homo sapiens, UniProt Q9H0H5); experiment: MgcRacGAP GTPase-activating activity inhibitors, confirmation, biochemical, ADP Hunter fluorescence, primary and confirmatory (AID 624330); type: functional
# T7 sequence (Q9H0H5 whole entry): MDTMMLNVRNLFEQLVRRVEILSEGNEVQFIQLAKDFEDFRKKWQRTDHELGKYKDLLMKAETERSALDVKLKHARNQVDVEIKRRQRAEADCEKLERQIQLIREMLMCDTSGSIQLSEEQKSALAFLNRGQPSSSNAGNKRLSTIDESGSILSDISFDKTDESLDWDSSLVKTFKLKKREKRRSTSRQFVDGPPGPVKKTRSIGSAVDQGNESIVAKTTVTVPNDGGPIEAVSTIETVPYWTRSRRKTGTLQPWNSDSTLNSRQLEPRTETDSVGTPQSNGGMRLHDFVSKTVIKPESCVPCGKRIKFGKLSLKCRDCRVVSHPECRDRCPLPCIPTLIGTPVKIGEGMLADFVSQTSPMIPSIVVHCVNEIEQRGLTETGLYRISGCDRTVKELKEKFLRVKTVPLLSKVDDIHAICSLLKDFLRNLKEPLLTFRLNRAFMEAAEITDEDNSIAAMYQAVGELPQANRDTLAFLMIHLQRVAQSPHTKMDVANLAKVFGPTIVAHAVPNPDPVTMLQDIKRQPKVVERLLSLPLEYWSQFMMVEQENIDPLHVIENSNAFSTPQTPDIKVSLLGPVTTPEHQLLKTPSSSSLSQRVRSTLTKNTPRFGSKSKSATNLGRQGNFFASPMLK
# [15] = molecular target: DNA dC->dU-editing enzyme APOBEC-3A (Homo sapiens, UniProt P31941); experiment: APOBEC3A DNA deaminase inhibitors, dose response, biochemical (AID 504722); type: functional
# [16] = molecular target: DNA dC->dU-editing enzyme APOBEC-3G (Homo sapiens, UniProt Q9HC16); experiment: Dose Response confirmation of small molecule APOBEC3G DNA Deaminase Inhibitors via a fluorescence-based single-stranded DNA deaminase assay. [Related pubchem assays (depositor defined):AID493012, AID493028]; type: functional
# Chain of DNA dC->dU-editing enzyme APOBEC-3G (Q9HC16 whole entry): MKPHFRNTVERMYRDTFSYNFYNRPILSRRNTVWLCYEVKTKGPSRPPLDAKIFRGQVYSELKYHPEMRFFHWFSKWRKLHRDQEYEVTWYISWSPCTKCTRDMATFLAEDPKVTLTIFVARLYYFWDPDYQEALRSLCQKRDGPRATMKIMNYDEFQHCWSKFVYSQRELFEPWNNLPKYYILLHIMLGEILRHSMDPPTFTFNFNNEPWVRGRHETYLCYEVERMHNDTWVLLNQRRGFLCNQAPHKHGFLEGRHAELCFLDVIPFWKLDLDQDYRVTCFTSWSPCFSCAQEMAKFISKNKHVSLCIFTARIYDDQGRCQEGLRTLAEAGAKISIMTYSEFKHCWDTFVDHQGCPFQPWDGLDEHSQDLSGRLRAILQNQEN
# Chain of G-protein coupled receptor 35 (Q9HC97 whole entry): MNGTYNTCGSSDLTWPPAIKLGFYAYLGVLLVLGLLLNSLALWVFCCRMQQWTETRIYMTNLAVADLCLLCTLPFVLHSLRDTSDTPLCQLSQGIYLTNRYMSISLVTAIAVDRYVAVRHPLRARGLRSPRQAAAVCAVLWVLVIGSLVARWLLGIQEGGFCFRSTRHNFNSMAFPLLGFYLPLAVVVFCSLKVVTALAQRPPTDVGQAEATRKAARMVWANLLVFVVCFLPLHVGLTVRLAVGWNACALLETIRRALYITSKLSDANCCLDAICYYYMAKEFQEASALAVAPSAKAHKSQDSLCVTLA
# Chain of Voltage-dependent T-type calcium channel subunit alpha-1H (O95180 whole entry): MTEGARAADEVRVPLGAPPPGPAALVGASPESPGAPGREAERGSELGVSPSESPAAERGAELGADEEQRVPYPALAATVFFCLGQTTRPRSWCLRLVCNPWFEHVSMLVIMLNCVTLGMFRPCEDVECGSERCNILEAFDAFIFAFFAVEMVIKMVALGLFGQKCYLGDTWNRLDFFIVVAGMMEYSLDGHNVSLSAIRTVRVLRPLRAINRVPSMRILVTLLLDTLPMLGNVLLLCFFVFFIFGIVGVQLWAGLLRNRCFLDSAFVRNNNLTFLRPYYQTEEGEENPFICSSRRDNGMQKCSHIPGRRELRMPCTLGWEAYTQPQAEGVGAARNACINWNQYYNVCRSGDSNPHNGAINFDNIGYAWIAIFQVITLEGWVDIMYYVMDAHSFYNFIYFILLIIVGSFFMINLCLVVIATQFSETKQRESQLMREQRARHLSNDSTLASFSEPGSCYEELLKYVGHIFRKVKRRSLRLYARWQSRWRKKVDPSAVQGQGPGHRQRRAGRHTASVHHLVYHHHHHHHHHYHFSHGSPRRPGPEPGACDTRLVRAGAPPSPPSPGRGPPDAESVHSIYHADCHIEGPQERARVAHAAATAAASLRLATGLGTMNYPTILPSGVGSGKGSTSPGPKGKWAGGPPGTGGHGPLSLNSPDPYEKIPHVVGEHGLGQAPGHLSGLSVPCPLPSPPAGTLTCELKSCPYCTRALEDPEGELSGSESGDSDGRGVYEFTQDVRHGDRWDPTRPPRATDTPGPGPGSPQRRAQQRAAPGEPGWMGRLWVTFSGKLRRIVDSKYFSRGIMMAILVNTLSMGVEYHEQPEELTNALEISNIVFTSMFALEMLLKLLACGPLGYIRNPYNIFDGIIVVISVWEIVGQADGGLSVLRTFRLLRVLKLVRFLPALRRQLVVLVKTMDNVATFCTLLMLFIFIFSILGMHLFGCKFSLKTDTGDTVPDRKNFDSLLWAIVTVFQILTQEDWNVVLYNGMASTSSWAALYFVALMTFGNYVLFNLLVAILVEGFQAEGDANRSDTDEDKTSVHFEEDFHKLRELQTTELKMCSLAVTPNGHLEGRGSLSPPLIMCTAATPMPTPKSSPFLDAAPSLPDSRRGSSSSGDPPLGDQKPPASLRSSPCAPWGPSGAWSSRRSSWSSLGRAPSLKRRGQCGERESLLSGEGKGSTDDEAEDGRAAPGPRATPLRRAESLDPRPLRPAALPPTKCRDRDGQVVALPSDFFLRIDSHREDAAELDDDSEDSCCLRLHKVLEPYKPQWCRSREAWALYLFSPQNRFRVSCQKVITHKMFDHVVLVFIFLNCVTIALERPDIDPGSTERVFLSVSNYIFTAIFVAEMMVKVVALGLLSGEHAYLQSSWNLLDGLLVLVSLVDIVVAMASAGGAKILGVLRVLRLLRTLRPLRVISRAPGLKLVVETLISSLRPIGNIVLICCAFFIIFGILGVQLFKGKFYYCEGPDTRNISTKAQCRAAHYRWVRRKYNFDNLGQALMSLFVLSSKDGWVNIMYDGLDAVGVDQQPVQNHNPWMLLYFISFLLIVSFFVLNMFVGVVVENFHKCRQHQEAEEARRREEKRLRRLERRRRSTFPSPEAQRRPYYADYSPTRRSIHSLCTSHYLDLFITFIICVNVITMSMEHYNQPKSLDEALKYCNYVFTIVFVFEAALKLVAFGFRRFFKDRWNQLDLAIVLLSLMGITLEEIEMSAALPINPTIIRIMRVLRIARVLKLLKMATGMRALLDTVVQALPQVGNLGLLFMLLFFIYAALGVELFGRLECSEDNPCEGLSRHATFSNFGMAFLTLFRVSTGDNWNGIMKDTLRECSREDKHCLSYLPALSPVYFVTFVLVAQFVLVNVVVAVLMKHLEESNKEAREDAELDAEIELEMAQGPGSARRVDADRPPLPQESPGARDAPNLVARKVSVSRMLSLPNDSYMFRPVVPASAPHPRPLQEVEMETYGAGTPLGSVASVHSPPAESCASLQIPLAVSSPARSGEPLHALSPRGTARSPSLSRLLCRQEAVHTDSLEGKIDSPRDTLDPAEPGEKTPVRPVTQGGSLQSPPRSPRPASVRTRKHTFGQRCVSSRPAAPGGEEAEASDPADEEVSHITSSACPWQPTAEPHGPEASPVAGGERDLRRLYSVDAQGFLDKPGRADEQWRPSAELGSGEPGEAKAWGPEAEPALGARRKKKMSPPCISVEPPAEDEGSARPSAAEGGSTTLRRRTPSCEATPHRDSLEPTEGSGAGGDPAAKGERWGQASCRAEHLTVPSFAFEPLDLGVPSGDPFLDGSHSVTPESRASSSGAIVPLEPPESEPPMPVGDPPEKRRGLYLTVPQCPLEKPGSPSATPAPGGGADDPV
# Chain of Caspase-7 (P55210 24-198 limits assumed): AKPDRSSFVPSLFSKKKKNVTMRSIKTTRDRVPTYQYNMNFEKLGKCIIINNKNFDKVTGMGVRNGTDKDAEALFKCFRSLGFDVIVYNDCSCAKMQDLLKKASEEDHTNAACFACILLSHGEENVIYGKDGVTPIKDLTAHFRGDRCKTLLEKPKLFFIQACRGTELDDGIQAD
# Chain of Caspase-7 (P55210 207-303 limits assumed): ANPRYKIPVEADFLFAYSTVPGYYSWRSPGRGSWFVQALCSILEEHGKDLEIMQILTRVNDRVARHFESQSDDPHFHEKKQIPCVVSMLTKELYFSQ
# Chain of ORF 73 (O40947 whole entry): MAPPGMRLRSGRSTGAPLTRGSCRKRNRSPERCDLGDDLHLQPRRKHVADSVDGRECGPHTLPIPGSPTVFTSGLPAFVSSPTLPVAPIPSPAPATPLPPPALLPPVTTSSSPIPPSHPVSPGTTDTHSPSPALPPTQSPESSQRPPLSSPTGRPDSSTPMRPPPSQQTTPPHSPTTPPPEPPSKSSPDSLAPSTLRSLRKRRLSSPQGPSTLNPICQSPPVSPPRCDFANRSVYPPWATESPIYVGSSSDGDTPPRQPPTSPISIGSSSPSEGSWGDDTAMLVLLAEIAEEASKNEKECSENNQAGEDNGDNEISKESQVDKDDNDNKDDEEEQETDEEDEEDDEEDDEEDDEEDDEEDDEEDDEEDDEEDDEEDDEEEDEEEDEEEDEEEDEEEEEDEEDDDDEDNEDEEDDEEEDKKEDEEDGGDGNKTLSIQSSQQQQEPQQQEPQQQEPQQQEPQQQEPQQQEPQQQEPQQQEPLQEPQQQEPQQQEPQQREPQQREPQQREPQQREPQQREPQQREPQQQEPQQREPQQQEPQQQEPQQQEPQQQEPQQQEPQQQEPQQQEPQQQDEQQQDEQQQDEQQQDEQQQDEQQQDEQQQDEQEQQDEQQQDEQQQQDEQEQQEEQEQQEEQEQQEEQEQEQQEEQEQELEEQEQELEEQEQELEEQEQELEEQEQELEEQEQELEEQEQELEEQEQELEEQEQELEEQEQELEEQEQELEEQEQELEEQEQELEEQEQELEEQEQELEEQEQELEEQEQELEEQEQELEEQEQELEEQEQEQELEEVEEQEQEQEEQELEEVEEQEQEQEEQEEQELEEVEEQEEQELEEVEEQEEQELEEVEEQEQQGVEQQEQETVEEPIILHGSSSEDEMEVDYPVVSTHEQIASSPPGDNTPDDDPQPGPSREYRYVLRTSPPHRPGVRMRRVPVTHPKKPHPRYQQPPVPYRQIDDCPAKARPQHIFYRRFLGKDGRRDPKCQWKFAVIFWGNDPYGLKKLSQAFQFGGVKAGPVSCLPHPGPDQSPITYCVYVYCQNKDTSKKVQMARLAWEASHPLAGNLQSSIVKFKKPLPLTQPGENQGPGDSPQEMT
# Chain of DNA dC->dU-editing enzyme APOBEC-3A (P31941 whole entry): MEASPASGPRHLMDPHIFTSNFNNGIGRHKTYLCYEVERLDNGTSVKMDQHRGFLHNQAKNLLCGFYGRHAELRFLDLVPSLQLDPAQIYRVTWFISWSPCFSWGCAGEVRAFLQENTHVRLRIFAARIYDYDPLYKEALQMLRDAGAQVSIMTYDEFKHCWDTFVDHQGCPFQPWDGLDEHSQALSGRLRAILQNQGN
# Chain of G-protein coupled receptor 55 (Q9Y2T6 whole entry): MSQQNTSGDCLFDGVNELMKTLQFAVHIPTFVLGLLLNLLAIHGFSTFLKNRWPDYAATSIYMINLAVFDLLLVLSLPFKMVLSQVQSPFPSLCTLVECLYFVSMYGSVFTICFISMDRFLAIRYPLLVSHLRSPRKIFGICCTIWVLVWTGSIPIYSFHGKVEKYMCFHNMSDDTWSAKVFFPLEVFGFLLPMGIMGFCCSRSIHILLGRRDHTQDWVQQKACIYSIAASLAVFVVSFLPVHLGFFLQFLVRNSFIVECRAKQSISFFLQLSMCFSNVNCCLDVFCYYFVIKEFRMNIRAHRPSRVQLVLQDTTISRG
smiles,measurement,setting,value
N#CC1=C(N)C(C#N)(C#N)C(c2cccnc2)C2CC(c3ccccc3)CC=C12 (stereo not drawn),EC50,[1],> 195 µM (not active)
same,AC50,HEK293,10.5 µM (active)
same,EC50,[2],4.73 µM (active)
c1ccc(-c2cn3nc4c(nc3n2)CCCC4)cc1,AC50,cells [3],12.7 µM (active)
same,AC50,ORF 73,94.3 µM (active)
same,AC50,Salmon testes DNA,169 µM (active)
same,EC50,[4],14.3 µM (active)
same,IC50,[5],> 20 µM (inactive)
same,AC50,HeLa,31.1 µM (active)
same,AC50,[6],> 52 µM (inactive)
same,EC50,[7],290 nM (active)
same,EC50,HT-1080,> 50 µM (not active)
same,AC50,cells [8],15.8 µM (active)
same,EC50,[9],10.6 µM (active)
same,AC50,[10],5.89 µM (active)
O=C(COc1ccc(Cl)cc1)Nc1nnc(-c2ccc3ccccc3c2)o1,EC50,[11],10 µM (active)
CC(=O)NCCc1nc2ccccc2n1Cc1ccc(C)cc1,EC50,Caspase-3,> 85.2 µM (inactive)
same,EC50,Caspase-7,> 85.2 µM (inactive)
COC(=O)c1cnn(-c2ccccc2)c1/C=N/NC(=S)NC(C)(C)C,IC50,[12],307 nM (active)
same,IC50,[13],6.58 µM (active)
O=[N+]([O-])c1cccc(/C=N/n2c(S)nnc2-c2cccnc2)c1,IC50,[14],31.9 µM (active)
same,IC50,[15],> 100 µM (inactive)
same,IC50,[16],2.33 µM (active)
